# Measurements published in PubChem BioAssay (NCI).
#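 Five concentrations, 48 hours, 96-well plates. Definition used: TGI = concentration required for complete inhibition of growth.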
# Columns and labels:
# Test in all cases: NCI tumour cell line growth inhibition, 48 h
# SF-539 CNS = tested on: SF-539 CNS
# 786-0 renal = tested on: 786-0 renal
# SK-MEL-2 melanoma = tested on: SK-MEL-2 melanoma
# COLO 205 colon = tested on: COLO 205 colon
# UO-31 renal = tested on: UO-31 renal
# DMS 273 small cell lung = tested on: DMS 273 small cell lung
# U251 CNS = tested on: U251 CNS
# MALME-3M melanoma = tested on: MALME-3M melanoma
# DLD-1 colon = tested on: DLD-1 colon
# OVCAR-8 ovarian = tested on: OVCAR-8 ovarian
# SF-295 CNS = tested on: SF-295 CNS
# M19-MEL melanoma = tested on: M19-MEL melanoma
# CAKI-1 renal = tested on: CAKI-1 renal
# TK-10 renal = tested on: TK-10 renal
# NCI-H23 lung = tested on: NCI-H23 lung
# CCRF-CEM leukemia = tested on: CCRF-CEM leukemia
# RPMI-8226 leukemia = tested on: RPMI-8226 leukemia
# SNB-75 CNS = tested on: SNB-75 CNS
# SK-MEL-5 melanoma = tested on: SK-MEL-5 melanoma
# SW-620 colon = tested on: SW-620 colon
# SK-OV-3 ovarian = tested on: SK-OV-3 ovarian
# KM20L2 colon = tested on: KM20L2 colon
# ACHN renal = tested on: ACHN renal
# KM12 colon = tested on: KM12 colon
# EKVX NSCLC = tested on: EKVX NSCLC
# NCI-H460 lung = tested on: NCI-H460 lung
# UACC-62 melanoma = tested on: UACC-62 melanoma
# SF-268 CNS = tested on: SF-268 CNS
# MOLT-4 leukemia = tested on: MOLT-4 leukemia
# A549 NSCLC = tested on: A549 NSCLC
# RXF-631 renal = tested on: RXF-631 renal
# HCT-116 colon = tested on: HCT-116 colon
# NCI-H226 lung = tested on: NCI-H226 lung
# HT29 colon = tested on: HT29 colon
# LOX IMVI melanoma = tested on: LOX IMVI melanoma
# UACC-257 melanoma = tested on: UACC-257 melanoma
# DMS 114 small cell lung = tested on: DMS 114 small cell lung
# OVCAR-4 ovarian = tested on: OVCAR-4 ovarian
# OVCAR-3 ovarian = tested on: OVCAR-3 ovarian
# A498 renal = tested on: A498 renal
# SNB-19 CNS = tested on: SNB-19 CNS
# HOP-62 NSCLC = tested on: HOP-62 NSCLC
# K-562 leukemia = tested on: K-562 leukemia
# HOP-18 NSCLC = tested on: HOP-18 NSCLC
# OVCAR-5 ovarian = tested on: OVCAR-5 ovarian
# SNB-78 CNS = tested on: SNB-78 CNS
# M14 melanoma = tested on: M14 melanoma
# HCT-15 colon = tested on: HCT-15 colon
# XF 498 CNS = tested on: XF 498 CNS
# HCC-2998 colon = tested on: HCC-2998 colon
# SK-MEL-28 melanoma = tested on: SK-MEL-28 melanoma
# SN12C renal = tested on: SN12C renal
# IGROV1 ovarian = tested on: IGROV1 ovarian
# SR leukemia = tested on: SR leukemia
# HOP-92 NSCLC = tested on: HOP-92 NSCLC
# HL-60(TB) leukemia = tested on: HL-60(TB) leukemia
# RXF 393 renal = tested on: RXF 393 renal
smiles,measurement,setting,value
c1ccc(C(c2ccccc2)c2ccncc2)cc1,TGI,SF-539 CNS,> 100 µM
same,TGI,786-0 renal,> 100 µM
same,TGI,SK-MEL-2 melanoma,> 100 µM
same,TGI,COLO 205 colon,> 100 µM
same,TGI,UO-31 renal,> 100 µM
same,TGI,DMS 273 small cell lung,> 100 µM
same,TGI,U251 CNS,> 100 µM
same,TGI,MALME-3M melanoma,> 100 µM
same,TGI,DLD-1 colon,> 100 µM
same,TGI,OVCAR-8 ovarian,> 100 µM
same,TGI,SF-295 CNS,> 100 µM
same,TGI,M19-MEL melanoma,> 100 µM
same,TGI,CAKI-1 renal,> 100 µM
same,TGI,TK-10 renal,> 100 µM
same,TGI,NCI-H23 lung,> 100 µM
same,TGI,CCRF-CEM leukemia,> 100 µM
same,TGI,RPMI-8226 leukemia,> 100 µM
same,TGI,SNB-75 CNS,74.3 µM
same,TGI,SK-MEL-5 melanoma,> 100 µM
same,TGI,SW-620 colon,> 100 µM
same,TGI,SK-OV-3 ovarian,> 100 µM
same,TGI,KM20L2 colon,> 100 µM
same,TGI,ACHN renal,> 100 µM
same,TGI,KM12 colon,> 100 µM
same,TGI,EKVX NSCLC,> 100 µM
same,TGI,NCI-H460 lung,> 100 µM
same,TGI,UACC-62 melanoma,> 100 µM
same,TGI,SF-268 CNS,> 100 µM
same,TGI,MOLT-4 leukemia,> 100 µM
same,TGI,A549 NSCLC,> 100 µM
same,TGI,RXF-631 renal,> 100 µM
same,TGI,HCT-116 colon,> 100 µM
same,TGI,NCI-H226 lung,> 100 µM
same,TGI,HT29 colon,> 100 µM
same,TGI,LOX IMVI melanoma,> 100 µM
same,TGI,UACC-257 melanoma,> 100 µM
same,TGI,DMS 114 small cell lung,> 100 µM
same,TGI,OVCAR-4 ovarian,> 100 µM
same,TGI,OVCAR-3 ovarian,> 100 µM
same,TGI,A498 renal,> 100 µM
same,TGI,SNB-19 CNS,> 100 µM
same,TGI,HOP-62 NSCLC,> 100 µM
same,TGI,K-562 leukemia,> 100 µM
same,TGI,HOP-18 NSCLC,> 100 µM
same,TGI,OVCAR-5 ovarian,> 100 µM
same,TGI,SNB-78 CNS,> 100 µM
same,TGI,M14 melanoma,> 100 µM
same,TGI,HCT-15 colon,> 100 µM
same,TGI,XF 498 CNS,> 100 µM
same,TGI,HCC-2998 colon,> 100 µM
same,TGI,SK-MEL-28 melanoma,> 100 µM
same,TGI,SN12C renal,> 100 µM
same,TGI,IGROV1 ovarian,> 100 µM
OCC(CO)C1c2cccc3ccc4cccc1c4c23,TGI,SF-539 CNS,> 100 µM
same,TGI,786-0 renal,> 100 µM
same,TGI,SK-MEL-2 melanoma,> 100 µM
same,TGI,COLO 205 colon,> 100 µM
same,TGI,UO-31 renal,> 100 µM
same,TGI,DMS 273 small cell lung,> 100 µM
same,TGI,U251 CNS,> 100 µM
same,TGI,MALME-3M melanoma,> 100 µM
same,TGI,DLD-1 colon,> 100 µM
same,TGI,OVCAR-8 ovarian,> 100 µM
same,TGI,SF-295 CNS,> 100 µM
same,TGI,SR leukemia,> 100 µM
same,TGI,M19-MEL melanoma,> 100 µM
same,TGI,HOP-92 NSCLC,> 100 µM
same,TGI,CAKI-1 renal,> 100 µM
same,TGI,TK-10 renal,> 100 µM
same,TGI,NCI-H23 lung,> 100 µM
same,TGI,CCRF-CEM leukemia,> 100 µM
same,TGI,RPMI-8226 leukemia,> 100 µM
same,TGI,SNB-75 CNS,> 100 µM
same,TGI,SK-MEL-5 melanoma,> 100 µM
same,TGI,SW-620 colon,> 100 µM
same,TGI,SK-OV-3 ovarian,> 100 µM
same,TGI,KM20L2 colon,> 100 µM
same,TGI,ACHN renal,> 100 µM
same,TGI,KM12 colon,> 100 µM
same,TGI,EKVX NSCLC,> 100 µM
same,TGI,NCI-H460 lung,> 100 µM
same,TGI,UACC-62 melanoma,> 100 µM
same,TGI,SF-268 CNS,> 100 µM
same,TGI,MOLT-4 leukemia,> 100 µM
same,TGI,A549 NSCLC,> 100 µM
same,TGI,RXF-631 renal,> 100 µM
same,TGI,HCT-116 colon,> 100 µM
same,TGI,NCI-H226 lung,> 100 µM
same,TGI,HL-60(TB) leukemia,> 100 µM
same,TGI,HT29 colon,> 100 µM
same,TGI,LOX IMVI melanoma,> 100 µM
same,TGI,UACC-257 melanoma,> 100 µM
same,TGI,DMS 114 small cell lung,> 100 µM
same,TGI,RXF 393 renal,> 100 µM
same,TGI,OVCAR-4 ovarian,> 100 µM
same,TGI,OVCAR-3 ovarian,> 100 µM
same,TGI,A498 renal,> 100 µM
same,TGI,SNB-19 CNS,> 100 µM
same,TGI,HOP-62 NSCLC,> 100 µM
same,TGI,K-562 leukemia,> 100 µM
same,TGI,HOP-18 NSCLC,> 100 µM
same,TGI,OVCAR-5 ovarian,> 100 µM
same,TGI,SNB-78 CNS,> 100 µM
same,TGI,M14 melanoma,> 100 µM
same,TGI,XF 498 CNS,> 100 µM
same,TGI,SK-MEL-28 melanoma,> 100 µM
same,TGI,SN12C renal,> 100 µM
same,TGI,IGROV1 ovarian,> 100 µM
